Experimental findings from ChEMBL document CHEMBL4138272, “Neuroprotective Dihydroagarofuran Sesquiterpene Derivatives from the Leaves of Tripterygium wilfordii” (2018) are described below.

This test relates to PC-12. Briefly: Neuroprotective activity against okadaic acid-induced cell injury in rat PC12 cells assessed as cell viability at 10 uM after 48 hrs by MTT assay (reference value: 60.4 +/- 23%). The test is classed as functional. As to conditions: for viability at 10 µM: PC-12, 48 h, read-out: Activity. On the technique in general: Formazan colour is commonly taken as a measure of viable cells.

Active and inactive are the calls of the source. The calls are words filed in the database; no cut-off is given here.

As to `CC(=O)OC[C@@]12[C@@H](OC(=O)/C=C/c3ccccc3)CC[C@](C)(O)[C@]13OC(C)(C)[C@H]([C@@H](OC(C)=O)[C@H]2OC(=O)c1ccoc1)[C@H]3O`, the result was inactive.

For the molecule `CC(=O)OC[C@@]12[C@@H](OC(=O)c3ccoc3)CC[C@@H](C)[C@]13OC(C)(C)[C@H]([C@@H](OC(C)=O)[C@H]2OC(=O)c1cccnc1)[C@H]3OC(C)=O`, the viability at 10 µM was determined as 72.4%.

With `CC(=O)OC[C@@]12[C@@H](OC(=O)/C=C/c3ccccc3)CC[C@](C)(O)[C@]13OC(C)(C)[C@H]([C@@H](O)[C@H]2OC(=O)c1ccoc1)[C@H]3OC(C)=O`, the result was inactive.

For `CC(=O)OC[C@]12[C@H](OC(C)=O)[C@H](OC(C)=O)[C@@H]3[C@@H](OC(=O)c4ccccc4)[C@@]14OC3(C)COC(=O)c1cccnc1C(C)C(C)C(=O)O[C@@H]([C@H](O)[C@@H]2OC(=O)c1ccccc1)[C@]4(C)O` (stereo partly drawn), the viability at 10 µM worked out at 86.2%.

Take `CC(=O)OC[C@@]12[C@@H](OC(=O)/C=C\c3ccccc3)CC[C@@H](C)[C@]13OC(C)(C)[C@H]([C@@H](OC(C)=O)[C@H]2OC(=O)c1cccnc1)[C@H]3OC(C)=O`: the viability at 10 µM was 75.7%.

In the case of `CC(=O)OC[C@@]12[C@@H](OC(=O)c3ccoc3)CC[C@@H](C)[C@]13OC(C)(C)[C@H]([C@@H](OC(C)=O)[C@H]2OC(=O)c1cccnc1)[C@H]3OC(=O)c1ccoc1`, the outcome was inactive.

Regarding `CC(=O)O[C@@H]1[C@H]2[C@@H](O)[C@@H](OC(=O)c3ccoc3)[C@]3(CO)[C@@H](OC(=O)/C=C/c4ccccc4)CC[C@](C)(O)[C@@]13OC2(C)C`, the outcome was inactive.

As to `CC(=O)OC[C@@]12[C@@H](OC(=O)/C=C\c3ccccc3)CC[C@](C)(O)[C@]13OC(C)(C)[C@H]([C@@H](OC(C)=O)[C@H]2OC(=O)c1ccoc1)[C@H]3O`, the outcome was inactive.

Take `CC(=O)OC[C@@]12[C@@H](OC(=O)/C=C/c3ccccc3)CC[C@@H](C)[C@]13OC(C)(C)[C@H]([C@@H](OC(C)=O)[C@H]2OC(=O)c1cccnc1)[C@H]3OC(C)=O`: the viability at 10 µM was found to be 81.2%.

Consider `CC(=O)OC[C@@]12[C@@H](OC(=O)/C=C/c3ccccc3)CC[C@](C)(O)[C@]13OC(C)(C)[C@H]([C@@H](O)[C@H]2O)[C@H]3OC(C)=O`, for which the outcome was inactive.

For the molecule `CC(=O)OC[C@@]12[C@@H](OC(=O)/C=C/c3ccccc3)CC[C@](C)(O)[C@]13OC(C)(C)[C@H](C(=O)[C@H]2OC(=O)c1ccoc1)[C@H]3O`, the result was inactive.

Regarding `CC(=O)OC[C@@]12[C@@H](OC(C)=O)CC[C@@H](C)[C@]13OC(C)(C)[C@H]([C@@H](OC(C)=O)[C@H]2OC(=O)c1cccnc1)[C@H]3OC(=O)c1ccoc1`, the viability at 10 µM amounted to 71.5%.

`CC(=O)OC[C@@]12[C@@H](OC(=O)/C=C\c3ccccc3)CC[C@](C)(O)[C@]13OC(C)(C)[C@H](C(=O)[C@H]2OC(=O)c1ccoc1)[C@H]3O`: the outcome was inactive.
